{
  "source": "ChEMBL document CHEMBL1138447",
  "about": "“New Rev-export inhibitor from Alpinia galanga and structure-activity relationship” (Bioorg Med Chem Lett, 2009)",
  "test_system": "HeLa",
  "test": "Inhibition of hemagglutininin-tagged HIV1 Rev protein nuclear export in human HeLa cells assessed as localization at 5 uM by indirect fluorescent antibody technique",
  "assay_type": "cell-based",
  "conditions": "Human immunodeficiency virus 1",
  "note": "Active and inactive are the calls of the source. No cut-off for these calls is given here.",
  "data": [
    {"compound": "C=C[C@H](OC(C)=O)c1ccc(OC(C)=O)cc1", "values": [
      {"measurement": "Activity", "value": "Active"}
    ]}
  ]
}
